Assay results: ChEMBL document CHEMBL5291721, “A preclinical secondary pharmacology resource illuminates target-adverse drug reaction associations of marketed drugs” (Nat Commun, 2023)

Columns and labels:
[1] = molecular target: T1, Alpha-1A adrenergic receptor (Homo sapiens, UniProt P35348); format: functional, cell-based
T1 sequence (P35348 whole entry): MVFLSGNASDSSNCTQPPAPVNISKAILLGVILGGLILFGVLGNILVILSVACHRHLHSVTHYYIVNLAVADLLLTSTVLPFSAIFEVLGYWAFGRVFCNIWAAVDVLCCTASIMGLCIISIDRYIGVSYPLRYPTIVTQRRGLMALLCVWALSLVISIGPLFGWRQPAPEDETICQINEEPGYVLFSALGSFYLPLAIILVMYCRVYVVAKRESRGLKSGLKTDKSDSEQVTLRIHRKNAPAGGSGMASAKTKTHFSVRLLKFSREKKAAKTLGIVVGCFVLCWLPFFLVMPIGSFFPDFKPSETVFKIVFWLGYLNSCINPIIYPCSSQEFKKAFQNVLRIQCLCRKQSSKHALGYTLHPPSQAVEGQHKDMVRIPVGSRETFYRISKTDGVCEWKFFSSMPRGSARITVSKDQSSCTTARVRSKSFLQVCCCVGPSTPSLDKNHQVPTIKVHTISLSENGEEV

[2] = molecular target: T2, Alpha-2A adrenergic receptor (Homo sapiens, UniProt P08913); format: functional, cell-based
T2 sequence (P08913 whole entry): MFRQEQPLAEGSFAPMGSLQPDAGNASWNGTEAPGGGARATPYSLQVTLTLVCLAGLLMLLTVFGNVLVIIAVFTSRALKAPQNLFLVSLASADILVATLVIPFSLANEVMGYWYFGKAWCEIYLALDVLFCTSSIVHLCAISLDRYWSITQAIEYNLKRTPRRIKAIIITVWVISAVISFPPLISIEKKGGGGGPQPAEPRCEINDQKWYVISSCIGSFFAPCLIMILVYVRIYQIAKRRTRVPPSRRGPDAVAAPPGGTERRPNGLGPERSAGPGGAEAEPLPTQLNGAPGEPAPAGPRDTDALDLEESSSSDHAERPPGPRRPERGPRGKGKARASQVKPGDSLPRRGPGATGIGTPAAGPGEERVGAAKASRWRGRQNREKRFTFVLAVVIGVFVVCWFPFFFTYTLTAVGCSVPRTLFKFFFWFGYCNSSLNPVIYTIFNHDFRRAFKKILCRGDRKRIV

[3] = molecular target: T2, Alpha-2A adrenergic receptor; format: functional, cell-based; remark: listed apart in the source
[4] = molecular target: T3, Muscarinic acetylcholine receptor M1 (Homo sapiens, UniProt P11229); format: functional
T3 sequence (P11229 whole entry): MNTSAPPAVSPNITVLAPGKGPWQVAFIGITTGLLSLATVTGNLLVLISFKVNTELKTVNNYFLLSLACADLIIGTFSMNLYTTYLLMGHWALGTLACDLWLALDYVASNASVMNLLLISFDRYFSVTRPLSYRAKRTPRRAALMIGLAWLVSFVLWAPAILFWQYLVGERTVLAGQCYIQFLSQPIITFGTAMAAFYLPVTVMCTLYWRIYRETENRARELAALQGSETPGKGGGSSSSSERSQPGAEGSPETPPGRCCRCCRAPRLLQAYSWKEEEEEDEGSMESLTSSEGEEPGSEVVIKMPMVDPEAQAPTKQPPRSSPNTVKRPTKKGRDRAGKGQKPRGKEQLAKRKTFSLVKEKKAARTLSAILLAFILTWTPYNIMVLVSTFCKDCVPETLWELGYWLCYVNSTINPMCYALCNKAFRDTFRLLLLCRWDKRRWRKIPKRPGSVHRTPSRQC

[5] = molecular target: Cannabinoid receptor 1 (Homo sapiens, UniProt P21554); format: functional, cell-based
[6] = molecular target: Prothrombin (Homo sapiens, UniProt P00734); format: functional
[7] = molecular target: Gamma-aminobutyric acid receptor subunit alpha-1 (Rattus norvegicus, UniProt P62813); format: functional
[8] = molecular target: T4, 5-hydroxytryptamine receptor 1A (Homo sapiens, UniProt P08908); format: functional, cell-based
T4 sequence (P08908 whole entry): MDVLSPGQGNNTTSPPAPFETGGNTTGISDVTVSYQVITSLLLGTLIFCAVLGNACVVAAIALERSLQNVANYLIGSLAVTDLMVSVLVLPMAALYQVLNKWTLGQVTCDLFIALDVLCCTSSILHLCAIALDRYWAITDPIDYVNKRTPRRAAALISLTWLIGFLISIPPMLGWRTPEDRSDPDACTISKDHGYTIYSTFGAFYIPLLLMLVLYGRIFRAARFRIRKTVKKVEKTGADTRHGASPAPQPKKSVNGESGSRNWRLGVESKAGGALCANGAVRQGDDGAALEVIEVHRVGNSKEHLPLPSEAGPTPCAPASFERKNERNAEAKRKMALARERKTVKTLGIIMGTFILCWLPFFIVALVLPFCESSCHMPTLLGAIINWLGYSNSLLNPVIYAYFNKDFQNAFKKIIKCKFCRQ

[9] = molecular target: 5-hydroxytryptamine receptor 2A (Homo sapiens, UniProt P28223); format: functional, cell-based
[10] = molecular target: Motilin receptor (Homo sapiens, UniProt O43193)
[11] = molecular target: Kappa-type opioid receptor (Homo sapiens, UniProt P41145)
[12] = molecular target: Mu-type opioid receptor (Homo sapiens, UniProt P35372)
[13] = molecular target: 3',5'-cyclic-AMP phosphodiesterase 4D (Homo sapiens, UniProt Q08499); format: functional
[14] = molecular target: Sodium-dependent dopamine transporter (Homo sapiens, UniProt Q01959)

Measured: AC50
Note: assay procedure not described here.

Chain of Mu-type opioid receptor (P35372 whole entry): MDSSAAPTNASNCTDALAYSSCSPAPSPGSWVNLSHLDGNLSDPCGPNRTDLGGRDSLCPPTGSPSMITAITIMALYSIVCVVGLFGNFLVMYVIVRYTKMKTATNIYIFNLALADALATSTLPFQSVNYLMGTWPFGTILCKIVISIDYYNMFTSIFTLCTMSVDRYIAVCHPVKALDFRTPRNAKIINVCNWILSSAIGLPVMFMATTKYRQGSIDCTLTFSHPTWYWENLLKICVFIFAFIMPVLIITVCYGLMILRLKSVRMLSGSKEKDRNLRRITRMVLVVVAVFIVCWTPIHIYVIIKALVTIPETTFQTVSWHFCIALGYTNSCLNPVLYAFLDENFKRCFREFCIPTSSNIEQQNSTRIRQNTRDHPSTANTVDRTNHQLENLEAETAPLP
Chain of Motilin receptor (O43193 whole entry): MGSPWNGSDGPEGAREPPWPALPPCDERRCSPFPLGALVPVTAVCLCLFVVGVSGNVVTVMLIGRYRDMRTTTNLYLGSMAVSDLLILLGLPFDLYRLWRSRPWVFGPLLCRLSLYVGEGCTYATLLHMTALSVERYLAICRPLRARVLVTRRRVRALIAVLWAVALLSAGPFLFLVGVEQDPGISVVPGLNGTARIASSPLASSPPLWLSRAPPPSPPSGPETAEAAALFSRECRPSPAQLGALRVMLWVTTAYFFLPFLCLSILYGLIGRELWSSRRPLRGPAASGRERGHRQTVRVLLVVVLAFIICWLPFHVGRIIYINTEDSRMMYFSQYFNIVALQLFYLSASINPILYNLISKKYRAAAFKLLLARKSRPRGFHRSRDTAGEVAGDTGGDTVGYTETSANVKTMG
Chain of 5-hydroxytryptamine receptor 2A (P28223 whole entry): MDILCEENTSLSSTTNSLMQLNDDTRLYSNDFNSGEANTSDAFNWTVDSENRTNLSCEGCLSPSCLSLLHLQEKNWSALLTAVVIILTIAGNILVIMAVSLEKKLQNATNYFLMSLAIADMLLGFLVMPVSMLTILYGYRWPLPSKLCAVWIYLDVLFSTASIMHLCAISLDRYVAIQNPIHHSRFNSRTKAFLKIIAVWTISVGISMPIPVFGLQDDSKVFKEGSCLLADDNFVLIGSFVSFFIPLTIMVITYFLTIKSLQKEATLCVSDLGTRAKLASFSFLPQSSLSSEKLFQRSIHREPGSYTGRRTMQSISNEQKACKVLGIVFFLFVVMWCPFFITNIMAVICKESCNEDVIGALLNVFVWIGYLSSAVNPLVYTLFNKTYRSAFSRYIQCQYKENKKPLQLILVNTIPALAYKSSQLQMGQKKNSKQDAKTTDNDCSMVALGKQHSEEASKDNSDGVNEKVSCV
Chain of Gamma-aminobutyric acid receptor subunit alpha-1 (P62813 whole entry): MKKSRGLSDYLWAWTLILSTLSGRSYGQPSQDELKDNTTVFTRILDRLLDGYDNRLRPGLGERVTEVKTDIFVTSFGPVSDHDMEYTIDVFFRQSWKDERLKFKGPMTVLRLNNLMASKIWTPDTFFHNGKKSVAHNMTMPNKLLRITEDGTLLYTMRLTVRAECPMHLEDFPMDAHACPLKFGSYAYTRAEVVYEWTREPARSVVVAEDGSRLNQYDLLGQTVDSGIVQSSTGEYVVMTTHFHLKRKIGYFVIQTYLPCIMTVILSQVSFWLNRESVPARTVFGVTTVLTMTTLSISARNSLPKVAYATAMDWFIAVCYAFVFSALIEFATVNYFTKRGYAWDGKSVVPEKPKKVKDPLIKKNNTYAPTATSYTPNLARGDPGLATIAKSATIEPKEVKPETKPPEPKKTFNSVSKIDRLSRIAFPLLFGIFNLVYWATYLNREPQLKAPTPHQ
Chain of Sodium-dependent dopamine transporter (Q01959 whole entry): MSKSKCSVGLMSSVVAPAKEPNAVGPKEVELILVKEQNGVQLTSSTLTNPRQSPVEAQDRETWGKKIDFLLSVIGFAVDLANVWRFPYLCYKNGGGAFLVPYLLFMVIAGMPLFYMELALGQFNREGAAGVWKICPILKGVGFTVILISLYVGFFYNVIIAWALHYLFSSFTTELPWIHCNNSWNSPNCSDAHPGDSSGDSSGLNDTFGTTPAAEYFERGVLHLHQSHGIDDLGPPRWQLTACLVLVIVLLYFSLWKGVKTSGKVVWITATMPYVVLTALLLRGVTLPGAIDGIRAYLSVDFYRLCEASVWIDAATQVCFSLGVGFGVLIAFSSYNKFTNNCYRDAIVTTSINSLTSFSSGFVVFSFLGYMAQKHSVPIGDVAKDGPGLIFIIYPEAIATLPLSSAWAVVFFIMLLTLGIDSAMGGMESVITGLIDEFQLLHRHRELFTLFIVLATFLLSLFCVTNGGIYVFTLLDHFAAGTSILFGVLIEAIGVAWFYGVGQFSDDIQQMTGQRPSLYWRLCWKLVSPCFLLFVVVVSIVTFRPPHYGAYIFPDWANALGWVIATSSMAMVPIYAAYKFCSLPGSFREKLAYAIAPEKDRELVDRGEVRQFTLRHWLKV
Chain of Cannabinoid receptor 1 (P21554 whole entry): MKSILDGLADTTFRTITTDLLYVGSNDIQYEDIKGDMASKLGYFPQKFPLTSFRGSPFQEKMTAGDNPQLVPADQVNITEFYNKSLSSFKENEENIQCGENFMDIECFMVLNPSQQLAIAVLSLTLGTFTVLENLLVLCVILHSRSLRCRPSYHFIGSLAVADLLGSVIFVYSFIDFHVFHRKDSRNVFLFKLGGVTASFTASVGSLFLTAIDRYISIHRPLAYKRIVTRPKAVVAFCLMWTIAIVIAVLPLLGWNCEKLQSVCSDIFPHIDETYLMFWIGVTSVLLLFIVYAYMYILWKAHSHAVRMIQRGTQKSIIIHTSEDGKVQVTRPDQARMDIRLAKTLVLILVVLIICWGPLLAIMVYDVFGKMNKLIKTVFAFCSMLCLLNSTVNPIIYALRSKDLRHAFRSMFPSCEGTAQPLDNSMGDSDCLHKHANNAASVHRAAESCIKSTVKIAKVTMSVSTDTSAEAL
Chain of 3',5'-cyclic-AMP phosphodiesterase 4D (Q08499 whole entry): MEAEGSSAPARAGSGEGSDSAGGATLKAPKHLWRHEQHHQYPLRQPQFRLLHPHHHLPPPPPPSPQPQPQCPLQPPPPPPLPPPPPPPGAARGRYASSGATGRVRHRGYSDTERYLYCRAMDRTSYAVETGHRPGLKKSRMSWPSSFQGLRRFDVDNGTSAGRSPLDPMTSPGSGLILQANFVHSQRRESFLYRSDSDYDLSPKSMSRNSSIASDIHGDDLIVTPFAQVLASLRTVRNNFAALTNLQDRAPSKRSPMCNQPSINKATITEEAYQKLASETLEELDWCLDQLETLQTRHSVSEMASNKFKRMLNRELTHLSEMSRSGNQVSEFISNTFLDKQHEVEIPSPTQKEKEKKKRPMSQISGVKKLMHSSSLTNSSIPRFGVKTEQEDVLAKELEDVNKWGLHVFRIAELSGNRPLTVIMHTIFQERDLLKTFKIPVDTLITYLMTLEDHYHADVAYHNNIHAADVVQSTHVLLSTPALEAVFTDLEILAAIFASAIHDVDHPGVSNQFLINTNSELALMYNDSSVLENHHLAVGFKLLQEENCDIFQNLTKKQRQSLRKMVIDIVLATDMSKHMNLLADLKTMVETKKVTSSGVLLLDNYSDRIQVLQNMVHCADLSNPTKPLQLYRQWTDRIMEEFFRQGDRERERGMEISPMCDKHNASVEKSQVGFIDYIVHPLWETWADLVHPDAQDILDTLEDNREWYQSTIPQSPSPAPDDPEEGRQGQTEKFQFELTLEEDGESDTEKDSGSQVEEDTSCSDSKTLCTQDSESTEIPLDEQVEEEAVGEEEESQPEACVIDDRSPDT
Chain of Kappa-type opioid receptor (P41145 whole entry): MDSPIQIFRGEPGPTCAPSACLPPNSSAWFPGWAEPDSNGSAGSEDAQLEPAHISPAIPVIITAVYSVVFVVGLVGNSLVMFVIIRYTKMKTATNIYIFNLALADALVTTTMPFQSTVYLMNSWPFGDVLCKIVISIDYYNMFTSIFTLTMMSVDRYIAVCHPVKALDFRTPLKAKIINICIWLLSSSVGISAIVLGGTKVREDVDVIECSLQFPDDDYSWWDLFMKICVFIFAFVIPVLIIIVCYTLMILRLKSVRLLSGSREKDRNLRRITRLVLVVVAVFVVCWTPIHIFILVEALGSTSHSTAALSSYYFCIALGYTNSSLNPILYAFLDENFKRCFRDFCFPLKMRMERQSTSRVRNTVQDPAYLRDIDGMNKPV

C=CCc1ccccc1OCC(O)CNC(C)C (stereo not drawn) [ALPRENOLOL]
> 0.3 µM: [1] | [6] | [12]
> 30 µM: all other assays above

O=C(Cc1ccc(-c2ccccc2)cc1)Nc1ccccn1 [DIFENPIRAMIDE]
not listed: [10] | [14]
> 30 µM: all other assays above

O=C(OCC(O)CO)c1ccccc1Nc1ccnc2cc(Cl)ccc12 (stereo not drawn) [GLAFENINE]
28 µM: [10]
0.046 µM: [7]
28.7 µM: [12]
0.17 µM: [13]
not listed: [11]
> 30 µM: all other assays above

CC[C@H]1[C@@H](O)[C@@H]2[C@H](CC[C@]3(C)[C@@H]([C@H](C)CCC(=O)O)CC[C@@H]23)[C@@]2(C)CC[C@@H](O)C[C@@H]12 [OBETICHOLIC ACID]
11 µM: [3]
> 30 µM: all other assays above

COCCCN1CCC(NC(=O)c2cc(Cl)c(N)c3c2OCC3)CC1 [PRUCALOPRIDE]
not listed: [11]
> 30 µM: all other assays above

Cn1nnc2c(C(N)=O)ncn2c1=O [TEMOZOLOMIDE]
> 10 µM: [11]
not listed: [1] | [6] | [12]
> 30 µM: all other assays above

Nc1ccn([C@H]2CC[C@@H](CO)O2)c(=O)n1 [ZALCITABINE]
> 30 µM: [5] | [9] | [13]
not listed: [1] | [6] | [12]
> 10 µM: all other assays above
